Results: paper PMC2965138, “DEB025 (Alisporivir) Inhibits Hepatitis C Virus Replication by Preventing a Cyclophilin A Induced Cis-Trans Isomerisation in Domain II of NS5A” (PLoS ONE, 2010)
Where “and” joins values, the source holds several entries; their conditions need not be identical. Identical values can stand only once. Like-named read-outs stand apart in the source and are kept apart here.

What was measured:
[1] = system: mutant GT1b subgenomic luciferase replicons in Huh7-Lunet cells; type: cell-based, Hepatitis C virus genotype 1b; conditions: for sensitivity of the generated mutant replicons compared to WT: site-directed mutant replicons, data not shown; for fold reduction in sensitivity (based on EC50-values) compared to WT replicon: luciferase assay
[2] = system: DEB025^res HCV subgenomic replicon (Con1-GT1b) in Huh 9–13 cells; design: method as in PMID 19104013; conditions: cited from earlier work
Protocol: (§1) Replicon-containing cells were continuously passaged in these double-selection media. When cultures had adapted to replication in the presence of a particular concentration of DEB025 (i.e. no more massive cell death) the concentration was increased in steps of 0.21 µM (typically every 3 passages).

[3] = system: CsA^res HCV subgenomic replicon (Con1-GT1b) in Huh 9–13 cells; design: method as in PMID 19104013; conditions: cited from earlier work
[4] = system: CsA^res HCV subgenomic replicon (Con1-GT1b) in Huh 9–13 cells; conditions: read-out: EC50, inhibition of HCV replicon RNA, CsA^res Huh 9-13 culture, 72 h treatment, RT-qPCR, mean ± SD, at least three independent experiments
Protocol: as §1
(§2) HCV replicon RNA was quantified by means of RT-qPCR and is expressed as the percentage of HCV replicon RNA of the untreated control cells. Data are mean values±standard deviations for at least three independent experiments.
(§3) When cells suffered from compound pressure, G418 pressure was removed till cells recovered. […] Four independent resistance selection experiments were carried out, three with Huh 9–13 replicons and one with Huh 5–2 replicons.
(§4) HCV replication assays were performed and analysed using published procedures.

[5] = system: DEB025^res HCV subgenomic replicon (Con1-GT1b) in Huh 9–13 cells; conditions: read-out: EC50, inhibition of HCV replicon RNA, DEB025^res Huh 9-13 culture, 72 h treatment, RT-qPCR, mean ± SD, at least three independent experiments
Protocol: as §1, §2, §3, §4

[6] = system: DEB025^res replicon RNA in Huh7-Lunet cells
Protocol: (§5) HCV replicon RNA was quantified by means of RT-qPCR and is expressed as the percentage of HCV replicon RNA of the untreated control cells. Data are mean values ± standard deviations for at least three independent experiments.
(§6) One day before lipofection, Huh7-Lunet cured cells were seeded in a 25 cm^2 flasks at a cell density of 5.26×10^5 cells. Just before transfection, the cells were washed once with opti-MEM® I (Invitrogen) and incubated for 4 h at 37°C with transfection medium containing: 26.3 µg of RNA, DMRIE-C Reagent (Invitrogen) and opti-MEM I serum free medium. Four hours post transfection, medium was replaced by culture medium without G418. Depending on the proliferation of the cells, G418 was gradually added to the cultures (to a final concentration of 1 mg/ml) to generate stable cell lines.

[7] = system: WT replicon RNA in Huh7-Lunet cells; conditions: read-out: EC50, inhibition of replicon RNA, Huh7-Lunet stably transfected with WT replicon RNA, RT-qPCR, mean ± SD
Protocol: as §5, §6

[8] = system: recombinant replicon with DEB025^res NS5A sequence in Huh7-Lunet cells
Protocol: (§7) The antiviral phenotype of this construct was evaluated in comparison with a construct into which the NS5A region derived from WT Huh 9–13 cells (which were cultured in parallel), was swapped.
(§8) For comparative reasons also the original unmanipulated vector was included in the analysis. […] Data are mean values ± standard deviations for at least three independent experiments. (C) Replication fitness of the different recombinant replicons. Huh7-Lunet cells were transiently transfected with each of the indicated replicon constructs and replicon RNA replication was quantified by means of a luciferase assay for 4 days post transfection. Data are normalized to the 4 h-value post electroporation to account for differences in electroporation efficiency and is expressed as percentage of the WT-value at 96 h post electroporation. Data are mean values ± standard deviations for at least two independent experiments.
(§9) RNA was isolated from either DEB025^res or WT HCV subgenomic replicon cells using the RNeasy mini kit (Qiagen). First-strand cDNA was synthesized using SuperScript II RT (Invitrogen). The NS5A or NS5B-containing regions were amplified in an AccuPrime Pfx DNA polymerase reaction (Invitrogen) for subsequent cloning into the WT Con1 plasmid. All constructs were sequenced to verify the correct manipulation.
(§10) Huh7-Lunet single-cell suspensions were prepared by trypsinization, washed twice with Opti-MEM® I (Invitrogen) and then resuspended at 1×10∧7 cells per ml in Cytomix containing 2 mM ATP and 5 mM glutathione. Ten µg of in vitro transcribed RNA was mixed with 400 µl cell suspension in a cuvette with a gap width of 4 mm (VWR International) and an ECM 830 Electro Square Porator™ (BTX Harvard Apparatus) was used to deliver 5 pulses at 900 V, 99 µsec. Cells were immediately transferred to 20 ml complete DMEM and seeded as required for the assay. Briefly, 100 or 700 µl aliquots of the cell suspension were seeded in a 96- or 24-well plate (Iwaki), respectively, filled with serial dilutions of the antiviral molecule in complete DMEM.

[9] = system: recombinant replicon with WT NS5A sequence in Huh7-Lunet cells; conditions: read-out: EC50, inhibition of replicon replication, replicon engineered to contain WT NS5A sequence, transient, 72 h, luciferase, mean ± SD
Protocol: as §7, §8, §9, §10

[10] = system: recombinant replicon with DEB025^res NS5B gene in Huh7-Lunet cells; type: cell-based, Hepatitis C virus genotype 1b; conditions: entire NS5B gene of DEB025^res replicon in WT background, control NS5B from WT cells
Protocol: as §8, §9
Huh7-Lunet single-cell suspensions were prepared by trypsinization, washed twice with Opti-MEM® I (Invitrogen) and then resuspended at 1×10∧7 cells per ml in Cytomix containing 2 mM ATP and 5 mM glutathione. […]

[11] = system: WT HCV subgenomic replicon (Con1-GT1b) in Huh 9–13 cells
Text: Huh7 cells containing subgenomic HCV genotype 1b replicon I377/NS3-3′/wt (Huh 9–13) [47], [48] and I389luc-ubi-neo/NS3-3′/5.1 (Huh 5–2) were used to select for resistance.

[12] = system: HCV subgenomic replicon (Con1-GT1b) in Huh 9–13 cells
[13] = cited from earlier work
Text: (§11) Several CsA-analogues, i.e. NIM811 [19], DEB025 and SCY-635 [20], are currently in preclinical and clinical development. […] We reported earlier on the potent in vitro anti-HCV activity of DEB025 [22] and on the particular characteristics of its anti-HCV activity.

HCV = conditions: cited from earlier work; for viral load reduction: genotype 1 null/partial responders, 29 days; for decrease in viral load: phase II
Text: as §11

calcineurin = conditions: cited from earlier work
Text: as §11

CypA = target: T1, CypA (Homo sapiens, UniProt P62937); conditions: cited from earlier work
T1 construct: made in house

[14] = system: replicons resistant to DAA inhibitors of different classes; conditions: cited from earlier work
[15] = system: JFH1-derived subgenomic replicon (GT2a); conditions: replicon with mutation near NS5A/NS5B cleavage site (position 464); cited from earlier work

T1 sequence (P62937 whole entry): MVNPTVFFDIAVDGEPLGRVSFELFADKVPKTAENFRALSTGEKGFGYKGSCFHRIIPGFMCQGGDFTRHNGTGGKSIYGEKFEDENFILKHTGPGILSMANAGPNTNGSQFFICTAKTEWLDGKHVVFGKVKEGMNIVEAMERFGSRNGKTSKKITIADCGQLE
Protocol for CypA-NS5A interaction: We next studied whether the NS5A mutations, either alone or in combination, have an influence on (i) the binding of NS5A to CypA and (ii) the sensitivity of the CypA-NS5A interaction to DEB025.
Glutathione beads were added to the GST-CypA/NS5A-His mixture for 30 min at 4°C and washed. Bound material was eluted and analyzed by Western blotting using anti-His and anti-CypA antibodies. (C) The percentage of NS5A pulled down in the presence of increasing concentrations of DEB025, relative to the amount of NS5A pulled down in the absence of the drug.
NS5A mutants were created by site-directed mutagenesis.
Pull-down experiments were conducted as described previously [55]. Briefly, GST-CypA (100 ng) was mixed with 10 ng of NS5A-His in a total volume of 200 µl for 3 h at 4°C on a rotating wheel. Glutathione beads (25 µl) were added to the GST-CypA/NS5A-His mixture for 30 min at 4°C and samples were washed 3 times thereafter. […] Bound material was then analyzed by Western blotting using anti-CypA and anti-His antibodies as described previously [9]. […] To calculate the percent of NS5A pulled down relative to the amount of NS5A pulled down in the absence of the drug scans of ECL-developed films were analyzed by Bio-Rad densitometer model 620 and quantified by Bio-Rad Program Manager software (Bio-Rad Laboratories, Inc., Hercules, CA). […]

## C[C@@]1(O)[C@H](O)[C@@H](CO)O[C@H]1n1ccc(N)nc1=O [2′-C-methylcytidine]
[1]
  sensitivity of the generated mutant replicons compared to WT: retained WT-activity
[2]
  antiviral activity against DEB025^res replicons compared to WT: retained WT-antiviral activity
[3]
  antiviral activity against CsA^res replicons compared to WT: retained WT-antiviral activity

## [N-]=[N+]=N[C@]1(CO)O[C@@H](n2ccc(N)nc2=O)[C@H](O)[C@@H]1O [4′-azidocytidine]
[2]
  antiviral activity against DEB025^res replicons compared to WT: retained WT-antiviral activity
[3]
  antiviral activity against CsA^res replicons compared to WT: retained WT-antiviral activity

## COc1ccc2c(O[C@@H]3C[C@H]4C(=O)N[C@]5(C(=O)O)C[C@H]5/C=C\CCCCC[C@H](NC(=O)OC5CCCC5)C(=O)N4C3)cc(-c3csc(NC(C)C)n3)nc2c1 [BILN2061]
[2]
  antiviral activity against DEB025^res replicons compared to WT: retained WT-antiviral activity
[3]
  antiviral activity against CsA^res replicons compared to WT: retained WT-antiviral activity

## C/C=C/C[C@@H](C)[C@@H](O)[C@H]1C(=O)N[C@@H](CC)C(=O)N(C)[C@H](C)C(=O)N(CC)[C@@H](C(C)C)C(=O)N[C@@H](C(C)C)C(=O)N(C)[C@@H](CC(C)C)C(=O)N[C@@H](C)C(=O)N[C@H](C)C(=O)N(C)[C@@H](CC(C)C)C(=O)N(C)[C@@H](CC(C)C)C(=O)N(C)[C@@H](C(C)C)C(=O)N1C [DEB025, Alisporivir]
[4]
  EC50: 460 ± 260 nM
[5]
  EC50: 2050 ± 560 nM
[6]; cells stably transfected with RNA from DEB025^res culture vs WT, on average
  fold less active than in WT-transfected cell line: 10 fold
[6]; read-out: EC50, inhibition of replicon RNA, Huh7-Lunet stably transfected with RNA from DEB025^res culture, RT-qPCR, mean ± SD, SD
  EC50: 440 ± 70 nM
[7]
  EC50: 40 ± 10 nM
[1]
  fold change in sensitivity compared to WT: 1.28 fold and 1.93 fold
[1]; mutant A241P + R262Q + R318W + D320E
  fold reduction in sensitivity (based on EC50-values) compared to WT replicon: 4.33 fold
[1]; mutant NS5A D320E
  fold reduction in sensitivity (based on EC50-values) compared to WT replicon: 3.92 fold and 3.9 fold
[1]; mutant NS5A R318W
  fold reduction in sensitivity (based on EC50-values) compared to WT replicon: ~2 fold
[1]; mutant NS5B I432V, luciferase assay (Figure S1)
  effect of NS5B I432V on antiviral activity: neither reduced the antiviral activity
[1]; mutant R318W + D320E
  fold reduction in sensitivity (based on EC50-values) compared to WT replicon: 3.79 fold
[8]; read-out: EC50, inhibition of replicon replication, replicon engineered to contain DEB025^res NS5A sequence, transient, 72 h, luciferase, mean ± SD, SD
  EC50: 390 ± 150 nM
[8]; replicon with DEB025^res NS5A vs replicon with WT NS5A
  fold less active than in replicon with WT NS5A sequence: 10 fold
[9]
  EC50: 40 ± 10 nM
[10]
  effect of DEB025^res NS5B gene in WT background on antiviral activity: No reduction in antiviral activity
[11]; 2.05 µM
  effect on WT replicon replication at a fixed concentration: completely inhibits WT replicon replication
[11]; read-out: EC50, inhibition of HCV replicon RNA, WT Huh 9-13 culture, 72 h treatment, RT-qPCR, mean ± SD, at least three independent experiments, SD
  EC50: 30 ± 10 nM
CypA-NS5A interaction; GST-CypA and His-tagged NS5A pull down, increasing drug concentrations
  effect on the CypA-NS5A interaction: inhibit the CypA-NS5A interaction in a dose-dependent manner
CypA-NS5A interaction; WT versus mutated NS5A, pull down
  effect on interactions between CypA and WT or mutated NS5A: equally disrupted
[12]; Huh 9-13, stepwise increasing drug with G418, on average
  passages of selective pressure needed to select resistant replicons: 35 passages
[12]; Huh 9-13 / Huh 5-2, stepwise increasing drug with G418, average (four independent experiments for DEB025)
  time of selective pressure needed to select resistant replicons: 20 weeks
[13]; 1000 mg dose, returned to baseline after treatment cessation
  adverse finding: isolated and transient hyperbilirubinemia
[13]; lower doses regimens
  tolerability: very well tolerated
HCV; 400 mg daily (with initial loading dose) combined with pegIFN/RBV
  viral load reduction: −1.96 log10 IU/ml
HCV; 800 mg daily combined with pegIFN/RBV
  viral load reduction: −2.38 log10 IU/ml
HCV; phase I, HCV/HIV-coinfected patients, monotherapy 1200 mg BID, after 15 days
  mean maximal decrease in HCV viral load: −3.6 log10 IU/ml
HCV; treatment-naïve genotype 1 and 4 patients, therapy based on 1000 mg/day DEB025 (combined with pegIFN-α-2a)
  decrease in viral load: −4.75 log10 IU/ml
HCV; treatment-naïve genotype 2 and 3 patients
  decrease in viral load: up to −5.89 log10 IU/ml
calcineurin
  inhibition of calcineurin: do not inhibit calcineurin
CypA
  affinity to CypA compared with CsA: superior to that of CsA to CypA
[14]
  activity against replicons resistant to DAA inhibitors compared to WT: retained WT-activity
[15]
  fold reduced sensitivity of resistant JFH1-derived replicon: ~5 fold

## CNC(=O)c1c(-c2ccc(F)cc2)oc2cc(N(CCO)S(C)(=O)=O)c(C3CC3)cc12 [HCV796, reference compound]
[1]
  sensitivity of the generated mutant replicons compared to WT: retained WT-activity

## CCC[C@H](NC(=O)[C@@H]1[C@H]2CCC[C@H]2CN1C(=O)[C@@H](NC(=O)[C@@H](NC(=O)c1cnccn1)C1CCCCC1)C(C)(C)C)C(=O)C(=O)NC1CC1 [VX-950]
[1]
  sensitivity of the generated mutant replicons compared to WT: retained WT-activity
[2]
  antiviral activity against DEB025^res replicons compared to WT: retained WT-antiviral activity
[3]
  antiviral activity against CsA^res replicons compared to WT: retained WT-antiviral activity
